Results on 1 compound are retold here after PubChem BioAssay AID1671318.

For the assay, the target named is Tyrosine-protein kinase Lyn (Homo sapiens) (UniProt P07948). The assay can be described thus: inhibitors of human LYN isoform A activity – biochemical, Z'-LYTE, FRET readout, dose response (AID 1671318). The conditions noted are these: Z'-LYTE FRET kinase assay, recombinant LYN A.

pIC50: −log10 of the molar value.

Sequence of Tyrosine-protein kinase Lyn (Homo sapiens) (P07948 whole entry, looked up, canonical isoform): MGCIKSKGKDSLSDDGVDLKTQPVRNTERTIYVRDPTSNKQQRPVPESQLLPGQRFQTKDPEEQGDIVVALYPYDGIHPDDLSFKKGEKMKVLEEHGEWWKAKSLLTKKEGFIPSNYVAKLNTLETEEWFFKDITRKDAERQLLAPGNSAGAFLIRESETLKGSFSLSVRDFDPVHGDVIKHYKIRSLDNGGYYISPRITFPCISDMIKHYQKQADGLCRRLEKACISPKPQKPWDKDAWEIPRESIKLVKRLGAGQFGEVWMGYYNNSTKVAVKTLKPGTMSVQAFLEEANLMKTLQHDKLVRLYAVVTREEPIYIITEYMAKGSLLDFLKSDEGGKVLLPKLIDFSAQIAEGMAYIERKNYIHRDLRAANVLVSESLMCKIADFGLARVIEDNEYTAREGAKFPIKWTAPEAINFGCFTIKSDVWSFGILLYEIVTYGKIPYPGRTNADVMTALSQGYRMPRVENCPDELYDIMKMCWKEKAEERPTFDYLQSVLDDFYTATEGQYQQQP

Consider `COc1cc2ncnc(Nc3cccc(Cl)c3)c2cc1OC`, for which the pIC50 (usually the negative decadic logarithm of the IC50, by convention in mol/L) was 6.68.
